Assay results taken from patent publication US20120329675A1, “Testing of Biofilm for Anti-microbial Agent Susceptibility” (priority 2009, published 2012).
Read-outs that look alike come from different tables or passages of the source.

Columns and labels:
[1] = test system: Pseudomonas aeruginosa (12 isolates from Cystic Fibrosis patients), planktonic bacteria; assay: Planktonic susceptibility to antibiotics and antibiotic combinations (challenge plate), 24 h exposure; assay type: cell-based
[2] = test system: Biofilms of Pseudomonas aeruginosa (12 isolates from Cystic Fibrosis patients); assay: Biofilm susceptibility to antibiotics and antibiotic combinations (peg lid device), 24 h exposure; assay type: cell-based; conditions: count apparently resistant isolates of 12
[3] = test system: P. aeruginosa ATCC 27853 biofilms; assay: Peg lid biofilm susceptibility testing, qualitative (MBEC) and quantitative (MBIC, MBCB) end points; assay type: cell-based, Pseudomonas aeruginosa
Method: Qualitative end points. According to CLSI standards % the MIC is defined as the lowest concentration of an antimicrobial agent that prevents visible growth in the challenge medium after a set period of incubation. By contrast, the MBEC is defined as the lowest concentration of antimicrobial agent that prevents visible growth from occurring in the recovery medium used to collect biofilm cells^17. The MBEC can be determined using the protocol presented here, and is measured after the recovery medium has been incubated for a suitable period of time, the length of which depends on the growth rate of the microorganism. Quantitative end points. […] This definition can be extended to both planktonic and biofilm cells and these end points will be denoted as the MBCP and MBCB, respectively. […] The technique presented here allows the MBCB or MLCB to be calculated. Another measure of biofilm susceptibility that has been proposed is the minimum biofilm inhibitory concentration (MBIC)^38,39. Here, the MBIC is defined as the lowest concentration of an antimicrobial at which there is no time-dependent increase in biofilm MVCC when an early exposure time is compared with a later exposure time. The MBIC thus corresponds to the intersecting point of two concentration-dependent killing curves, and therefore, it is possible to distinguish between biofilm resistance and tolerance on the basis of VCC (FIG. 8). (iii) Read the OD of the microtiter plate wells at 650 nm using the microtiter plate reader and visually inspect the wells for growth. […] (viii) Score the spot plates for growth by colony counting using the same approach described in Step 8. Determine the mean VCCs and SD for the broth culture using equations (2) and (3). Calculate biofilm mean log-killing and SD using equation (5). […] The biofilms were then exposed to gentamicin for either 2 or 20 hours; qualitative and quantitative determinations of biofilm cell survival were then performed. For ease of understanding, we focus on a single antibiotic.

[4] = 12 isolates from Cystic Fibrosis patients, 24 hours exposure, count apparently resistant isolates of 12

| Compound | Pseudomonas resistance to individual antibiotics and antibiotic combinations, Planktonic [1, 4] | Pseudomonas resistance to individual antibiotics and antibiotic combinations, Biofilm [2] | further results |
| --- | --- | --- | --- |
| C[C@@H](O)[C@H]1C(=O)N2C(C(=O)O)=C(SCCN=CN)C[C@H]12 [IMP] | 12 | 12 |  |
| O=C(O)c1cn(C2CC2)c2cc(N3CCNCC3)c(F)cc2c1=O [CIPRO, Ciprofloxacin] |  |  | Pseudomonas resistance to individual antibiotics and antibiotic combinations, Planktonic [1]: 4 |
| NC[C@H]1O[C@H](O[C@H]2[C@H](O)[C@@H](O[C@H]3O[C@H](CO)[C@@H](O)[C@H](N)[C@H]3O)[C@H](N)C[C@@H]2N)[C@H](N)C[C@@H]1O [TB, Tobramycin] | 3 | 12 |  |
| C[C@H]1[C@H](NC(=O)/C(=N\OC(C)(C)C(=O)O)c2csc(N)n2)C(=O)N1S(=O)(=O)O [AZTR, Aztreonam] |  |  | Pseudomonas resistance to individual antibiotics and antibiotic combinations, Planktonic [1]: 0 |
| NCC[C@H](O)C(=O)N[C@@H]1C[C@H](N)[C@@H](O[C@H]2O[C@H](CN)[C@@H](O)[C@H](O)[C@H]2O)[C@H](O)[C@H]1O[C@H]1O[C@H](CO)[C@@H](O)[C@H](N)[C@H]1O [AK, Amikacin] | 8 | 11 |  |
| CC(C)(O/N=C(\C(=O)N[C@@H]1C(=O)N2C(C(=O)[O-])=C(C[n+]3ccccc3)CS[C@H]12)c1csc(N)n1)C(=O)O [CFTZ, Ceftazidime] | 3 | 12 |  |
| gentamicin | 8 | 12 | MBCB ([3]; 2 h exposure): > 512 µg/mL; MBCB ([3]; 20 h exposure): 512 µg/mL; MBEC ([3]; exposed for 2 or 20 hours, biofilms grown in LB broth): > 512 µg/mL; MBIC ([3]; from VCC, 2 h compared with 20 h exposure): 128 µg/mL |
